Patent US7943173B2, “Pharmaceutical combinations of oxycodone and naloxone” (Purdue Pharma L.P., priority 2001, dated 2011)
Counter-ions that a name gives are not always drawn. Marks after values point to notes of the source that are not given here.

Key:
[1] = Example 8: adverse events; assay type: in vivo, human
Procedure: There were no deaths or serious adverse events. No subjects discontinued because of adverse events. The majority of drug-related adverse events occurred when subjects were dosed with Talwin® Nx. These included nausea, vomiting, dizziness, and headache. One subject withdrew consent due to a schedule conflict.
Eleven of 18 subjects experienced a total of 25 adverse events, none serious. Seven of these subjects experienced adverse events described as possibly, probably, or definitely related to the study medication. Overall, adverse events were more frequently reported in subjects receiving Talwin® Nx, consistent with expected adverse events related to pentazocine. All subjects recovered from all adverse events. No action (e.g., discontinuation) was taken with regard to the study drug.

[2] = clinical; conditions: both, human, plasma; for AUC(0-t): AUCt; for AUC(0-t) / Cmax / Tmax: plasma naloxone
Procedure: In Example 8, a single-center, open-label, randomized, 4-period, 4-sequence, 4-treatment crossover study in 18 normal, healthy, young adult, male and female subjects under fasted conditions was conducted. […] Subjects were randomly assigned to four sequences with periods consisting of the following: • Period 1 was Days 1-8 (from the time of the first dose until the time of the second dose), • Period 2 was Days 8-15 (from the time of the second dose until the third dose), • Period 3 was Days 15-22 (from the third dose until the fourth dose), and • Period 4 was Days 22 (from the time of the last dose until the end of the study).
Dosing took place on Days 1, 8, 15, and 22. For the duration of the study, subjects were instructed not to engage in heavy exercise.
Talwin® Nx was administered with 8 ounces of water, which the subjects drank completely. Afterwards, mouth inspections were done to ensure that each subject swallowed the tablet.
Following the single oral dose of naloxone, subjects drank two additional 75 ml rinses of water, for a total volume of 225 ml. For divided doses (also 0.02 mg/ml), the first dose was followed by two 94 ml rinses of water, and subsequent doses were followed by two 75 ml rinses of water.
Intravenous naloxone was administered by IV push. Following IV naloxone, subjects were observed by staff members continuously for at least 20 minutes.
Each subject received each treatment one time. Each treatment followed an overnight fast (excluding water) of at least 10 hours, and after dosing, the subjects fasted for an additional 4 hours. Except for the days of dosings, there were no food restrictions. While subjects were confined to the clinical unit all meals were served at standardized times, and the content was standardized throughout the study and between subjects. Meal records were maintained, including content. No caffeine or xanthine-containing beverages were served while the subjects were in the clinical facility.

[3] = clinical; conditions: both, human, plasma, oral
Procedure: Up to 96 subjects were to be enrolled in order to complete a minimum of 48 subjects who were evaluable for pharmacokinetics. […] Subjects successfully completing the Narcan® challenge were randomly assigned to 1 of 2 crossover treatment sequences (reference to test or test to reference) with a 5-day washout period separating dosing in the 2 periods. Subjects were confined to the study facility continuously from Day-1 until Day 10. […] All doses were administered with 8 ounces of water after an overnight fast (excluding water). […] Plasma concentrations of oxycodone and naloxone (as applicable) were determined, and pharmacokinetic metrics were calculated and analyzed. […] For the purpose of statistical analyses, Period 1 was defined as the time from administration of the first dose (Day 2) to just prior to administration of the second dose (Day 7). Period 2 was defined as the time from administration of the second dose (Day 7) to the time of the 72-hour postdose blood collection on Day 10.

[4] = conclusions of the study, treatment not named
[5] = iv, 0.5 mg, 0.5 mg IV naloxone HCl, arithmetic mean (SD)
[6] = po, 1.5 mg, 1.5 mg naloxone HCl oral divided doses, arithmetic mean (SD)
[7] = po, 1.5 mg, 1.5 mg naloxone HCl single oral dose, 18 subjects, arithmetic mean (SD)

SMILES: C=CCN1CC[C@]23c4c5ccc(O)c4O[C@H]2C(=O)CC[C@@]3(O)[C@H]1C5 [Naloxone HCl, naloxone hydrochloride]
- adverse events considered possibly, probably, or definitely related to study drug ([1]; 0.5 mg intravenous naloxone): nausea possibly related
- adverse events considered possibly, probably, or definitely related to study drug ([1]; 1.5 mg oral naloxone in divided doses): headache possibly related
- tolerability ([1]; given alone, total doses of 0.5 mg IV and up to 1.5 mg orally): well tolerated
- adverse events during the naloxone challenge test ([1]; intravenous challenge at screening, 18 subjects randomized): No adverse events were observed
- AUC0-∞, dose normalized (Dose Normalized to 0.5 mg IV Naloxone HCl dose, 0.5 mg IV arm, 15 subjects): 3051 (668)^a pg · h/ml
- Mean naloxone peak exposure [4]: 8 pg/mL
- naloxone peak exposure, range [4]: 0 to 16.6 pg/mL
- AUC(0-inf) ([2]; iv, 0.5 mg): 3.05 ng·h/mL
- clearance ([2]; iv, 0.5 mg): 2850 mL/min
- AUC(0-t) ([2]; iv, 0.5 mg, 0.5 mg IV naloxone HCl, fasted healthy subjects, arithmetic mean (SD)): 3.2 ng·h/mL
- Cmax [2, 5]: 6.25 ng/mL
- half-life ([2]; iv, 0.5 mg, t1/2, plasma naloxone, 0.5 mg IV naloxone HCl, 15 subjects, arithmetic mean (SD)): 0.92 h
- Tmax [2, 5]: 0.14 h
- AUC(0-t) ([2]; po, 1.5 mg, 1.5 mg naloxone HCl oral divided doses (0, 3, 6, 9 h), arithmetic mean (SD)): 0.0649 ng·h/mL
- AUC(0-t) ([2]; po, 1.5 mg, 1.5 mg naloxone HCl single oral dose (solution), 18 subjects, arithmetic mean (SD)): 0.0474 ng·h/mL
- Cmax [2, 6]: 0.0134 ng/mL
- Cmax [2, 7]: 0.023 ng/mL
- bioavailability ([2]; po, 1.5 mg, F (%) absolute bioavailability, 1.5 mg naloxone HCl oral divided doses, based on AUCt, mean (SD)): 0.66%
- bioavailability ([2]; po, 1.5 mg, F (%) absolute bioavailability, 1.5 mg naloxone HCl single oral dose, based on AUCt, mean (SD)): 0.47%
- Tmax [2, 6]: 3.18 h
- Tmax [2, 7]: 0.78 h
- bioavailability ([2]; po, absolute bioavailability of naloxone, all three oral treatments studied): < 1%
- Cmax [3]: 0.00213 ± 0.00447 ng/mL
- Tmax [3]: 3.35 ± 3.69 h
- half-life [3]: 4.3 ± 3.03 h
